Assay results taken from patent EP1429719B1, “ANTI-INFLAMMATORY DERMOCOSMETOLOGIC COMPOSITION IN PARTICULAR FOR TREATING ACNE AND SEBORRHEIC DERMATITIS” (Pierre Fabre Dermo-Cosmetique, priority 2001, dated 2003).

Tested on: prostaglandine 6KF1α
Assay: Production of prostaglandin 6KF1α by HaCaT human keratinocytes stimulated with calcium ionophore A23187 (ELISA)
Format: cell-based, humain
Conditions: 5 h culture; for PG6KF1α: n = 3
From the text: Conformément à la présente invention, il a été mis en évidence une synergie d'activité anti-inflammatoire du lactamide et du glycyrrhétinate de zinc et/ou du glycyrrhétinate de stéaryl et/ou de glycyrrhétinate d'ammonium. Cette synergie a été objectivée à la suite d'une évaluation sur la production de prostaglandine 6KF1α par le kératynocyte humain.
Dans cette étude, on s'est intéressé en particulier à une prostaglandine, la PG6KF1α, métabolite stable de la prostarycline, qui est un des métabolites majeurs produits par le kératinocyte stimulé, et représentatif de la modulation de la production des métabolites de l'acide arachidonique issus de la voie de la cyclo-oxygénase.
Sur ce modèle, on a évalué l'activité du glycyrrhétinate de zinc en association avec le lactamide sur la production de PG6KF1α induite chez le kératinocyte par un stimulant de la cascade de l'acide arachidonique, le ionophore calcique A23187.
On a réalisé ensuite la même étude en évaluant l'activité du stéaryl glycyrrhétinate en association avec le lactamide.
La suspension de kératinocytes humains HaCaT dans le RPMI 10% SVF est distribuée dans les plaques 6 puits (1x106 cellules/2ml/puits) et incubée pendant 16 heures à 37°C dans une atmosphère à 5% CO2. Les kératinocytes sont alors rincés avec du PBS pour éliminer les cellules non-adhérentes puis exposés aux produits à tester inclus dans du RPMI sans SVF (qui pourrait interférer dans le dosage).
Le lactamide MEA est directement solubilisé dans le RPMI sans SVF à une concentration de 1 0mg/ml.
Le glycyrrhétinate de zinc est préparé dans l'éthanol absolu à 100 mg/ml puis repris dans le RPMI sans SVF à 10 mg/ml.
Le stéaryl glycyrrhétinate est préparé dans le DMSO à […] puis repris dans le RPMI sans SVF à 10mg/ml.
Le glycyrrhétinate d'ammonium est préparé dans l'éthanol absolu à 100 mg/ml puis repris dans le RPMI sans SVF à 25 mg/ml.
Pour chaque lot, 3 puits sont réalisés. Les cellules sont incubées pendant 1 heure avec les produits à tester puis le ionophore calcique A23187, est ajouté pendant 5 heures à la concentration 5µM.
Les milieux de culture de chacun des puits sont ensuite récupérés, centrifugés à 3000 tr/mn et conservés à -80°C.
La production de prostaglandine 6KF1α pour chacun des essais est mesurée par Kit Elisa EUROMEDEX.
Les lots suivants ont été réalisés : • Lot témoin • Lot témoin stimulé A23187 5µM • Lactamide MEA 500µg/ml + A23187 5µM • Glycyrrhétinate de zinc 10 µg/ml + A23187 5µM • Lactamide MEA 500µg/ml/Glycyrrhétinate de zinc 10µg/ml + A23187 5µM • Stéaryl glycyrrhétinate 50µg/ml + A23187 5µM • Lactamide MEA 500µg/ml/Stéaryl glycyrrhétinate 50µg/ml + A23187 5µM • Glycyrrhétinate d'ammonium 25 µg/ml + A23187 5µM • Lactamide MEA 500 µg/ml/Glycyrrhétinate d'ammonium 25 µg/ml + A23187 5µM.
Les résultats sont exprimés en picogrammes de prostaglandine 6KF1α pour 1x10^6 kératinocytes et par ml de culture.
L'analyse statistique des résultats est réalisée par une analyse de variance et par le test de Dunnett.

With CC(O)C(=O)NCCO (stereo not shown) [Lactamide MEA, monoéthanolamide de l'acide lactique] the inhibition at 500 µg/mL (Homo sapiens, Lactamide MEA 500µg/ml + A23187 5µM, n = 3, read-out: % activité / Témoin A23187) was -8% and the PG6KF1α (Lactamide MEA 500µg/ml + A23187 5µM, 1 h pre-incubation) was 124,87 ± 11,50 pg/1x10^6 kératinocytes/ml.
glycyrrhétinate de zinc was tested, and the PG6KF1α (Glycyrrhétinate de zinc 10µg/ml + A23187 5µM) was 78,37 ± 2,55 pg/1x10^6 kératinocytes/ml.
For CCCCCCCCCCCCCCCCCCOC(=O)[C@@]1(C)CC[C@]2(C)CC[C@]3(C)C(=CC(=O)[C@@H]4[C@@]5(C)CC[C@H](O)C(C)(C)[C@@H]5CC[C@]43C)[C@@H]2C1 [Stéaryl glycyrrhétinate, stéaryl glycyrrhétinate], the inhibition at 50 µg/mL (Homo sapiens, Stéaryl glycyrrhétinate 50µg/ml + A23187 5µM, n = 3, read-out: % activité / Témoin A23187) was 31% and the PG6KF1α (Stéaryl glycyrrhétinate 50µg/ml + A23187 5µM) was 79,87 ± 5,14 pg/1x10^6 kératinocytes/ml.
With CC1(C)[C@@H](O)CC[C@]2(C)[C@H]3C(=O)C=C4[C@@H]5C[C@@](C)(C(=O)O)CC[C@]5(C)CC[C@@]4(C)[C@]3(C)CC[C@@H]12 [Glycyrrhétinate d'ammonium, glycyrrhétinate d'ammonium] the PG6KF1α (Glycyrrhétinate d'ammonium 25µg/ml + A23187 5µM) was 80,74 ± 3,67 pg/1x10^6 kératinocytes/ml and the inhibition at 25 µg/mL (Homo sapiens, Glycyrrhétinate d'ammonium 25µg/ml + A23187 5µM, n = 3, read-out: % activité / Témoin A23187) was 30%.
